The values below come from ChEMBL document CHEMBL2073941, “TP-search Transporter Database” (Gastroenterology, 1994).

This data set has as its target T1, OAT1 (Solute carrier family 22 member 6) (Homo sapiens, UniProt Q4U2R8).
T1 sequence (Q4U2R8 whole entry): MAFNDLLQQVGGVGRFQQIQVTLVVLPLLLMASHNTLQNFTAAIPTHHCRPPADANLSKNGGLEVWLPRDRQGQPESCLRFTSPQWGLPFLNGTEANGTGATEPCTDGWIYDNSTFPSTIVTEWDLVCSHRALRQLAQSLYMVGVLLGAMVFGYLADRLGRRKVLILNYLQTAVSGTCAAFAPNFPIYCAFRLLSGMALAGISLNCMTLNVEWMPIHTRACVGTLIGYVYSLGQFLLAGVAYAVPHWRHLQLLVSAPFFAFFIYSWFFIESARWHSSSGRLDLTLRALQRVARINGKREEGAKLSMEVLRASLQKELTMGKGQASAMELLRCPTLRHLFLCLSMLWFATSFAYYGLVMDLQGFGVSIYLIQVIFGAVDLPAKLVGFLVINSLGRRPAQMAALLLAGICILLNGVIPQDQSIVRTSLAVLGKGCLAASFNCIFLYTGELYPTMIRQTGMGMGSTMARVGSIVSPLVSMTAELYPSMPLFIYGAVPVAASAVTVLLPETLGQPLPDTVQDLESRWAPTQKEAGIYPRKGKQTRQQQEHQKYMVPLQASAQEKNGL
As to the kind of experiment: TP_TRANSPORTER: inhibition of Urate uptake (Urate: 300 uM, DIDS: 2000 uM) in OAT1-expressing S2 cells. Conditions: S2 cells that express OAT1, probe urate (300 uM); read-out: Activity. Further details: scale not given: the % may be the effect or the level left. The class given is functional, cell-based.

Structures are written as SMILES.

For `O=S(=O)(O)c1cc(N=C=S)ccc1/C=C/c1ccc(NC=S)cc1S(=O)(=O)O`, the activity at 2000 µM came to 64.2%.
